US20100028278A1, “USE OF CHROMAN-4-ONE DERIVATIVES” (Merck Patent Gesellschaft MIT Beschrankter Haftung, priority 2007, published 2010)

Tested on: Normal human adipocytes
Assay: Assessment of lipid synthesis in adipocytes in suspension (anti-cellulitis efficacy test)
Assay type: cell-based
Settings: radioactively labelled acetate (2-C14) into lipids, versus comparative sample
Protocol: Normal human adipocytes are isolated starting from biopsies (plastic surgery). Immediately after receipt, the samples are incubated for 30 min at 37° C. in the presence of collagenase (supplied by Sigma). The suspension of adipocytes is then rinsed and diluted three-fold in the culture medium, The culture medium is formed, for example, from the following: • 1.87 mg/ml of bicarbonate (supplied by Life Technologies), • 25 IU/ml/25 μg/ml of penicillin/streptomycin (supplied by Life Technologies), • 2 mM of glutamine (supplied by Life Technologies), • 100% (vol./vol.) MEM (supplied by Merck Eurolab) and • 0.5% (wt./vol.) bovine albumin (supplied by Sigma).
The adipocytes in suspension are incubated for 4 h at 37° C. in the presence of various concentrations of a compound of the formula I. […]
After incubation for 4 h, the lipids are extracted by the procedure described by Bligh and Dyer, Can. J. Biochem. Physiol., 37, 922 (1959), evaporation is carried out under nitrogen, and the introduced radioactivity is quantified by liquid scintillation (reference liquid scintillation instrument LKB 1210, supplied by Rackbeta).
Any interaction between the radioactively labelled acetate and a compound of the formula I is evaluated in order to confirm the specificity of the labelling by incubating the highest concentration of the compound of the formula I with acetate alone.

Question: How did the “inhibition of the incorporation of acetate” value turn out when C/C=C/C/C=C/CCC(=O)[C@H]1O[C@H]1C(N)=O [Cerulin] was run?
Answer: Its value is 95%.
